{"source": "the supplement of paper PMC10307832", "assay_in_all_cases": "relative viability (nuclei count vs DMSO), 5 days (fraction); higher = more cells survive", "key": {"NCI-H2085": {"tested_on": "NCI-H2085", "summary_of_the_method": "(§1)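 Relative viability was taken as the ratio of nuclei in treated wells to nuclei in vehicle wells. Lung cancer cell lines in 1536-well plates received compounds by pin tool one day after seeding, either one drug alone or a fixed anchor-drug dose plus five library-drug doses (not always all listed) in √10 steps. Nuclei were counted on 4× images after 5 days of treatment, and values are medians of duplicate plates.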"}, "NCI-H1648": {"tested_on": "NCI-H1648", "summary_of_the_method": "as §1"}, "NCI-H3122": {"tested_on": "NCI-H3122", "summary_of_the_method": "as §1"}, "HCC-44": {"tested_on": "HCC-44", "summary_of_the_method": "as §1"}, "HCC-366": {"tested_on": "HCC-366", "summary_of_the_method": "as §1"}, "LOU-NH91": {"tested_on": "LOU-NH91", "summary_of_the_method": "as §1"}, "LXF-289": {"tested_on": "LXF-289", "summary_of_the_method": "as §1"}, "NCI-H1623": {"tested_on": "NCI-H1623", "summary_of_the_method": "as §1"}, "NCI-H1437": {"tested_on": "NCI-H1437", "summary_of_the_method": "as §1"}}, "data": [{"smiles": "Nc1ccn([C@@H]2O[C@H](CO)[C@@H](O)[C@@H]2O)c(=O)n1", "note": "[Cytarabine] + COc1cccc2cc(-c3nc([C@H]4CC[C@H](C(=O)O)CC4)n4ncnc(N)c34)[nH]c12 [OSI-027] (partner 0.5 µM)", "values": [{"measurement": "relative viability", "setting": "NCI-H2085; first compound 0.005 µM", "value": 0.535}, {"measurement": "relative viability", "setting": "NCI-H2085; first compound 0.01581 µM", "value": 0.735}, {"measurement": "relative viability", "setting": "NCI-H2085; first compound 0.05 µM", "value": 0.623}, {"measurement": "relative viability", "setting": "NCI-H2085; first compound 0.1581 µM", "value": 0.442}, {"measurement": "relative viability", "setting": "NCI-H2085; first compound 0.5 µM", "value": 0.459}, {"measurement": "relative viability", "setting": "NCI-H1648; first compound 0.005 µM", "value": 0.238}, {"measurement": "relative viability", "setting": "NCI-H1648; first compound 0.01581 µM", "value": 0.266}, {"measurement": "relative viability", "setting": "NCI-H1648; first compound 0.05 µM", "value": 0.246}, {"measurement": "relative viability", "setting": "NCI-H1648; first compound 0.1581 µM", "value": 0.214}, {"measurement": "relative viability", "setting": "NCI-H1648; first compound 0.5 µM", "value": 0.263}, {"measurement": "relative viability", "setting": "NCI-H3122; first compound 0.005 µM", "value": 0.953}, {"measurement": "relative viability", "setting": "NCI-H3122; first compound 0.01581 µM", "value": 0.873}, {"measurement": "relative viability", "setting": "NCI-H3122; first compound 0.05 µM", "value": 0.811}, {"measurement": "relative viability", "setting": "NCI-H3122; first compound 0.1581 µM", "value": 0.461}, {"measurement": "relative viability", "setting": "NCI-H3122; first compound 0.5 µM", "value": 0.125}, {"measurement": "relative viability", "setting": "HCC-44; first compound 0.005 µM", "value": 0.376}, {"measurement": "relative viability", "setting": "HCC-44; first compound 0.01581 µM", "value": 0.461}, {"measurement": "relative viability", "setting": "HCC-44; first compound 0.05 µM", "value": 0.413}, {"measurement": "relative viability", "setting": "HCC-44; first compound 0.1581 µM", "value": 0.189}, {"measurement": "relative viability", "setting": "HCC-44; first compound 0.5 µM", "value": 0.226}, {"measurement": "relative viability", "setting": "HCC-366; first compound 0.005 µM", "value": 0.823}, {"measurement": "relative viability", "setting": "HCC-366; first compound 0.01581 µM", "value": 0.61}, {"measurement": "relative viability", "setting": "HCC-366; first compound 0.05 µM", "value": 0.558}, {"measurement": "relative viability", "setting": "HCC-366; first compound 0.1581 µM", "value": 0.213}, {"measurement": "relative viability", "setting": "HCC-366; first compound 0.5 µM", "value": 0.06}, {"measurement": "relative viability", "setting": "LOU-NH91; first compound 0.005 µM", "value": 0.664}, {"measurement": "relative viability", "setting": "LOU-NH91; first compound 0.01581 µM", "value": 0.739}, {"measurement": "relative viability", "setting": "LOU-NH91; first compound 0.05 µM", "value": 0.597}, {"measurement": "relative viability", "setting": "LOU-NH91; first compound 0.1581 µM", "value": 0.486}, {"measurement": "relative viability", "setting": "LOU-NH91; first compound 0.5 µM", "value": 0.585}, {"measurement": "relative viability", "setting": "LXF-289; first compound 0.005 µM", "value": 0.671}, {"measurement": "relative viability", "setting": "LXF-289; first compound 0.01581 µM", "value": 0.634}, {"measurement": "relative viability", "setting": "LXF-289; first compound 0.05 µM", "value": 0.419}, {"measurement": "relative viability", "setting": "LXF-289; first compound 0.1581 µM", "value": 0.237}, {"measurement": "relative viability", "setting": "LXF-289; first compound 0.5 µM", "value": 0.113}, {"measurement": "relative viability", "setting": "NCI-H1623; first compound 0.005 µM", "value": 0.372}, {"measurement": "relative viability", "setting": "NCI-H1623; first compound 0.01581 µM", "value": 0.376}, {"measurement": "relative viability", "setting": "NCI-H1623; first compound 0.05 µM", "value": 0.277}, {"measurement": "relative viability", "setting": "NCI-H1623; first compound 0.1581 µM", "value": 0.258}, {"measurement": "relative viability", "setting": "NCI-H1623; first compound 0.5 µM", "value": 0.243}, {"measurement": "relative viability", "setting": "NCI-H1437; first compound 0.005 µM", "value": 0.797}, {"measurement": "relative viability", "setting": "NCI-H1437; first compound 0.01581 µM", "value": 0.584}, {"measurement": "relative viability", "setting": "NCI-H1437; first compound 0.05 µM", "value": 0.541}, {"measurement": "relative viability", "setting": "NCI-H1437; first compound 0.1581 µM", "value": 0.233}, {"measurement": "relative viability", "setting": "NCI-H1437; first compound 0.5 µM", "value": 0.211}]}, {"smiles": "Nc1ccn([C@@H]2O[C@H](CO)[C@@H](O)[C@@H]2O)c(=O)n1", "note": "[Cytarabine] + Cc1cc(Nc2cc(N3CCN(C)CC3)nc(Sc3ccc(NC(=O)C4CC4)cc3)n2)n[nH]1 [Tozasertib] (partner 0.1 µM)", "values": [{"measurement": "relative viability", "setting": "NCI-H2085; first compound 0.005 µM", "value": 0.809}, {"measurement": "relative viability", "setting": "NCI-H2085; first compound 0.01581 µM", "value": 0.806}, {"measurement": "relative viability", "setting": "NCI-H2085; first compound 0.05 µM", "value": 0.844}, {"measurement": "relative viability", "setting": "NCI-H2085; first compound 0.1581 µM", "value": 0.694}, {"measurement": "relative viability", "setting": "NCI-H2085; first compound 0.5 µM", "value": 0.719}, {"measurement": "relative viability", "setting": "NCI-H1648; first compound 0.005 µM", "value": 0.456}, {"measurement": "relative viability", "setting": "NCI-H1648; first compound 0.01581 µM", "value": 0.517}, {"measurement": "relative viability", "setting": "NCI-H1648; first compound 0.05 µM", "value": 0.484}, {"measurement": "relative viability", "setting": "NCI-H1648; first compound 0.1581 µM", "value": 0.265}, {"measurement": "relative viability", "setting": "NCI-H1648; first compound 0.5 µM", "value": 0.32}, {"measurement": "relative viability", "setting": "NCI-H3122; first compound 0.005 µM", "value": 0.389}, {"measurement": "relative viability", "setting": "NCI-H3122; first compound 0.01581 µM", "value": 0.407}, {"measurement": "relative viability", "setting": "NCI-H3122; first compound 0.05 µM", "value": 0.299}, {"measurement": "relative viability", "setting": "NCI-H3122; first compound 0.1581 µM", "value": 0.237}, {"measurement": "relative viability", "setting": "NCI-H3122; first compound 0.5 µM", "value": 0.161}, {"measurement": "relative viability", "setting": "HCC-44; first compound 0.005 µM", "value": 0.925}, {"measurement": "relative viability", "setting": "HCC-44; first compound 0.01581 µM", "value": 0.928}, {"measurement": "relative viability", "setting": "HCC-44; first compound 0.05 µM", "value": 0.418}, {"measurement": "relative viability", "setting": "HCC-44; first compound 0.1581 µM", "value": 0.379}, {"measurement": "relative viability", "setting": "HCC-44; first compound 0.5 µM", "value": 0.255}, {"measurement": "relative viability", "setting": "HCC-366; first compound 0.005 µM", "value": 0.149}, {"measurement": "relative viability", "setting": "HCC-366; first compound 0.01581 µM", "value": 0.119}, {"measurement": "relative viability", "setting": "HCC-366; first compound 0.05 µM", "value": 0.0834}, {"measurement": "relative viability", "setting": "HCC-366; first compound 0.1581 µM", "value": 0.0612}, {"measurement": "relative viability", "setting": "HCC-366; first compound 0.5 µM", "value": 0.0652}, {"measurement": "relative viability", "setting": "LOU-NH91; first compound 0.005 µM", "value": 0.555}, {"measurement": "relative viability", "setting": "LOU-NH91; first compound 0.01581 µM", "value": 0.53}, {"measurement": "relative viability", "setting": "LOU-NH91; first compound 0.05 µM", "value": 0.672}, {"measurement": "relative viability", "setting": "LOU-NH91; first compound 0.1581 µM", "value": 0.411}, {"measurement": "relative viability", "setting": "LOU-NH91; first compound 0.5 µM", "value": 0.514}, {"measurement": "relative viability", "setting": "LXF-289; first compound 0.005 µM", "value": 0.244}, {"measurement": "relative viability", "setting": "LXF-289; first compound 0.01581 µM", "value": 0.182}, {"measurement": "relative viability", "setting": "LXF-289; first compound 0.05 µM", "value": 0.13}, {"measurement": "relative viability", "setting": "LXF-289; first compound 0.1581 µM", "value": 0.0999}, {"measurement": "relative viability", "setting": "LXF-289; first compound 0.5 µM", "value": 0.0753}, {"measurement": "relative viability", "setting": "NCI-H1623; first compound 0.005 µM", "value": 0.325}, {"measurement": "relative viability", "setting": "NCI-H1623; first compound 0.01581 µM", "value": 0.264}, {"measurement": "relative viability", "setting": "NCI-H1623; first compound 0.05 µM", "value": 0.284}, {"measurement": "relative viability", "setting": "NCI-H1623; first compound 0.1581 µM", "value": 0.199}, {"measurement": "relative viability", "setting": "NCI-H1623; first compound 0.5 µM", "value": 0.178}, {"measurement": "relative viability", "setting": "NCI-H1437; first compound 0.005 µM", "value": 0.295}, {"measurement": "relative viability", "setting": "NCI-H1437; first compound 0.01581 µM", "value": 0.355}, {"measurement": "relative viability", "setting": "NCI-H1437; first compound 0.05 µM", "value": 0.365}, {"measurement": "relative viability", "setting": "NCI-H1437; first compound 0.1581 µM", "value": 0.251}, {"measurement": "relative viability", "setting": "NCI-H1437; first compound 0.5 µM", "value": 0.175}]}]}
